US11999697B2, “Methods and compositions for inhibition of dihydroorotate dehydrogenase” (OHIO STATE INNOVATION FOUNDATION, priority 2018, dated 2024)

What was measured:
[1] = system: AML cell lines (MOLM13, MV4-11, THP1, HL-60, and OCI-AML3); assay: cells; conditions: read-out: IC50 range for growth arrest in AML cell lines
Description: MTS assay for cell growth/viability: Mitochondrial activity was measured to determine cell proliferation using an MTS assay (tetrazolium dye 3′[4,5-dimethylthiazol-2-yl]-2,5-diphenyl-tetrazolium bromide). Metabolically active cells convert MTS tetrazolium salt into a purple formazan product that is soluble in tissue culture medium. The amount of formazan measured at 490 nm absorbance is proportional to the number of proliferating cells. […] Triplicate wells were set up for each condition. At 96 hours, the MTS reagent was added and after approximately 4 hours the plates were read in a spectrophotometer. MTS assays in primary AML cells were done in a similar manner as the cell lines with the following changes: 100K cells were plated per well, and the MTS was done in the presence of an HS5 stromal cell line to support the in vitro growth of the primary cells. Primary cells were incubated with MTS for approximately 8-12 hours (varies with the samples) before reading the absorbance.
Cell proliferation assays were carried out using the MTS assay described herein using five AML cell lines (i.e., MOLM13, MV4-11, THP1, HL-60, and OCI-AML3) with varied genetic backgrounds. The assays were carried out in a blinded fashion.

HL-60 = assay: MTS cell proliferation assay, HL-60; assay type: cell-based; conditions: Homo sapiens, 96 hours
Description: Triplicate wells were set up for each condition.
The assays were carried out in a blinded fashion.

primary human AML cells [2] = assay: CyTOF analysis of neutrophil differentiation; assay type: cell-based; conditions: 0.5 μM, 7 days, cytokine supplemented media
Description: CyTOF analysis: primary human AML cells were treated with vehicle (DMSO) or Cpd3 (0.5 μM) in the presence of cytokine supplemented media for 7 days. Cells were then incubated with 5-Iodo-2′-deoxyuridine for 10 minutes at 37° C. and fixed with Smart Tube proteomic stabilizer. 1-2×10^6 cells were washed twice with cell staining media (CSM; 0.5% BSA, 0.02% sodium azide in PBS), permeablized with cold, 0.01% saponin in PBS, barcoded using the Cell-ID 20-Plex Pd Barcoding Kit (Fluidigm), incubated for 30 minutes at room temperature, washed again 3× with CSM. Cells were then incubated with Fc blocking reagent (10 minutes at room temperature; RT) after which a cocktail of extracellular antibodies (Table 14 below) were added (50 minutes at RT, with shaking). Cells were washed with CSM, fixed for 15 minutes (10% CSM, 1.5% PFA, in PBS), and washed with CSM. Membrane permeablization was performed with ice cold methanol incubated for 20 minutes at −20° C., followed by washing 1× with PBS and 2× with CSM, and incubation with the intracellular antibody cocktail (Table 10) (50 minutes at RT, with shaking). Cells were then rinsed 2× in CSM, 1× in PBS, and incubated in PBS containing 1.5% PFA and 125 nM iridium intercalator (pentamethylcyclopentadienyl-Ir(III)-dipyridophenazine) (Fluidigm) at 4° C. […]

[3] = system: kinases (more than 480 kinase assays); assay: DiscoverX KINOMEscan panel; assay type: binding; conditions: 1 μM and 10 μM
Excerpt: A representative disclosed compound, Cpd3, was screened for potential noncovalent binding interaction with kinases by screening a comprehensive panel in the DiscoverX KINOMEscan® platform (Eurofins DiscoverX Corporation, Fremont, Calif. 94538; e.g., see also Herman, S. E. M., et al., Clin Cancer Res; 23(11) Jun. 1, 2017). Panel allows for screening against more than 480 kinase assays including clinically relevant mutants, lipid, atypical, and pathogen kinases. The screening system provides for thermodynamic affinity data (as opposed to IC50s), and allows for detection of multiple inhibitor types, including type I, type II, and allosteric. […] It is notable that the upper limit tested in this screen is at least 10-fold greater than the observed in vitro IC50 for activity in the assays discussed above.

[4] = system: luciferase-expressing MOLM-13 cells; assay: MOLM13 xenograft study, 10 mg/kg; assay type: in vivo, NCG mice; conditions: 10 mg/kg oral gavage, three or five days per week, Days 7 and 14
Description: The effect of a representative disclosed compound, Cpd3, on in vivo tumor growth was assessed in a MOLM13 xenograft study. Briefly, male NCG (NOD-Prkdc^em26Cd52//2rg^em26Cd22/NjuCrl) mice (N=12 per group) were given an intravenous injection of 1×10^4 luciferase-expressing MOLM-13 cells. […] Therefore at 3 days post-engraftment (day 0 treatment), mice were injected with luciferin, imaged for leukemia burden, and began dosing with Cpd3 (10 mg/kg daily by oral gavage) or vehicle control (15% ethanol, 30% PEG-400 in PBS). Mice were treated on two different dosing schedules: Cpd3 three days per week (Mon, Wed and Fri) or five days per week (Mon through Fri). Mice on the Mon, Wed, Fri schedule received a vehicle on Tues and Thurs, so that all mice were consistently gavaged five days per week. In addition to day 0, mice were monitored once weekly (days 7 and 14 post-treatment) by IVIS imaging. In order to assess tumor burden, mice were injected with luciferin and imaged on an IVIS imager Days 0, 7, and 14. […] The data for tumor burden at Day 7 (FIG. 11B) and Day 14 (FIG. 11C) is summarized in bar graph format.

primary human AML cells [5] = assay: Colony formation (CFU) assay in methocult media; assay type: cell-based; conditions: 1 μM, 14 days
Description: Colony formation (CFU) assays in methocult media: CFU assays can detect an increase or decrease in the frequency of the hematopoietic progenitor proliferation and/or changes in differentiation potential in response to stimulatory, inhibitory or toxic agents. For CFU assays with primary AML cells, cells were cultured overnight in media containing IL-3, GM-CSF, SCF, and FLT3L cytokines at 20 ng/ml. 10-25K primary cells were suspended in MethoCult™ Optimum without EPO which is supplemented with SCF, IL-3, G-CSF, GM-CSF along with vehicle, 1 μM Cpd3 or 1 μM brequinar. After 14 days the total number of colonies was counted and the cells were solubilized from the methocult for cytospin assays described below. […] FIGS. 3A-3B show representative data for colony formation for primary human AML cells in the presence of a representative disclosed compound, Cpd3, compared to a reference compound, brequinar, or vehicle treatment using methods as described herein below. Briefly, primary AML cells were treated with vehicle (DMSO), Cpd3 (1 μM) or brequinar sodium (BQR, 1 μM) and plated in methocult media for 14 days. Results are plotted as the total number of colonies per each condition. Lines connecting data from the same patient sample are shown in order to indicate the trend within a particular sample.

For `CCOc1ccc(-c2ccc(-c3cc(C(=O)O)c4cc(F)ccc4n3)cc2)cc1` [Cpd3, 2-(4′-ethoxy-[1,1′-biphenyl]-4-yl)-6-fluoroquinoline-4-carboxylic acid], the IC50 [1] was 280 to 1100 nM, the IC50 (HL-60) was 0.28 µM and the “induction of neutrophil differentiation” value (primary human AML cells [2]) was “significant induction of neutrophil differentiation”. The “noncovalent binding interaction with kinases” value [3] was “no apparent interactions with the screen targets”, the “tumor burden (luciferase expression by IVIS imaging)” value [4] was “able to reduce the tumor burden in the mice” and the “growth in methocult colony forming unit (CFU) assays” value (primary human AML cells [5]) was “decreased growth”.
